The term IC50 denotes the concentration needed to halve the response being measured. Read a high IC50 as weaker potency.

The target of the assay is T1, FXR ligand binding domain (Homo sapiens, UniProt Q96RI1).
T1 construct: made in house; host or cells: E. coli BL21 (pLysS)
T1 sequence (Q96RI1 193-472 isoform Q96RI1-2): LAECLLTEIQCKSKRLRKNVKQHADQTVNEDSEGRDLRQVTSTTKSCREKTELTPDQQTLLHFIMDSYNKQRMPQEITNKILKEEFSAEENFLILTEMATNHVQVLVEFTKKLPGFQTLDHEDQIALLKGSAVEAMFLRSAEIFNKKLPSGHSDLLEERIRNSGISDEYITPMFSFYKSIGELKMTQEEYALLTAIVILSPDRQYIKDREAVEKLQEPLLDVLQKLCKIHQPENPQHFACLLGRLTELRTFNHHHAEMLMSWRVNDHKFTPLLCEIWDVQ
Description: Radioligand Binding Assay (scintillation proximity radioligand displacement). The note with it: GST-FXR LBD fusion protein on SPA beads, test compound 6×10^−9 M to 2.5×10^−5 M. Here is the method: The following tests were carried out in order to determine the activity of the compounds of formula (I). Background information on the binding assay can be found in: Nichols J S et al. “Development of a scintillation proximity assay for peroxisome proliferator-activated receptor gamma ligand binding domain”, (1998) Anal. Biochem. 257: 112-119.
Bacterial and mammalian expression vectors were constructed to produce glutathione-s-transferase (GST) and Gal4 DNA binding domain (GAL) proteins fused to the ligand binding domain (LBD) of human FXR (aa 193-473). To accomplish this, the portions of the sequences encoding the FXR LBD were amplified by polymerase chain reaction (PCR) from a full-length clone by PCR and then subcloned into the plasmid vectors. The final clone was verified by DNA sequence analysis.
The induction, expression, and subsequent purification of GST-LBD fusion protein was performed in E. coli strain BL21 (pLysS) cells by standard methods (Current Protocols in Molecular Biology, Wiley Press, ed. Ausubel et al.).
Radioligand Binding Assay
Binding of test substances to the FXR ligand binding domain was assessed in a radioligand displacement assay. The assay was performed in a buffer consisting of 50 mM Hepes, pH 7.4, 10 mM NaCl, 5 mM MgCl2, 0.01% CHAPS. For each reaction well in a 96-well plate, 40 nM of GST-FXR LBD fusion protein was bound to […] glutathione ytrium silicate SPA beads (PharmaciaAmersham) in a final volume of […] by shaking. A radioligand (e.g., 20 nM of 2,N-dicyclohexyl-2-[2-(2,4 dimethoxy-phenyl)-benzoimidazol-1-yl]-acetamide) and test compounds were added, and scintillation proximity counting was performed. All binding assays were performed in 96-well plates and the amount of bound ligand was measured on a Packard TopCount using OptiPlates (Packard). Dose response curves were performed within a range of test compound concentrations from 6×10^−9 M to 2.5×10^−5 M and IC50 values were calculated.
A general note: In a scintillation proximity assay essentially only radioactivity close to the scintillant gives light.
For `Fc1cc2nc(-c3ccc(Cl)cc3OCC3CCCC3)n(Cc3cccc(-c4nnn[nH]4)c3)c2cc1F` [Example 67, 2-(4-Chloro-2-cyclopentylmethoxy-phenyl)-5,6-difluoro-1-[3-(1H-tetrazol-5-yl)-benzyl]-1H-benzoimidazole], the IC50 is 90 nM.

`O=C(O)c1ccc(COc2ncccc2-c2nc3cc(F)c(F)cc3n2Cc2cccc(Cl)c2)cc1` [Example 14, 4-{3-[1-(3-Chloro-benzyl)-5,6-difluoro-1H-benzoimidazol-2-yl]-pyridin-2-yloxymethyl}-benzoic acid] showed an IC50 of 5200 nM.

Molecule `Fc1cc2nc(-c3ccc(Cl)cc3OCCc3ccc(-c4nnn[nH]4)cc3)n(CC3CCCCC3)c2cc1F` [Example 36, 2-(4-Chloro-2-{2-[4-(1H-tetrazol-5-yl)-phenyl]-ethoxy}-phenyl)-1-cyclohexylmethyl-5,6-difluoro-1H-benzoimidazole] registered an IC50 of 90 nM.

Consider `Fc1cc2nc(-c3ccc(Cl)cc3OCc3ccc(-c4nnn[nH]4)cc3C(F)(F)F)n(CC3CCCCC3)c2cc1F` [Example 38, 2-{4-Chloro-2-[4-(1H-tetrazol-5-yl)-2-trifluoromethyl-benzyloxy]-phenyl}-1-cyclohexylmethyl-5,6-difluoro-1H-benzoimidazole], for which the half-maximal inhibitory concentration (IC50) amounted to 200 nM.

Consider `O=C(O)CCc1ccc(Cn2c(-c3cccnc3OCC3CC3)nc3cc(F)c(F)cc32)cc1` [Example 16, 3-{4-[2-(2-Cyclopropylmethoxy-pyridin-3-yl)-5,6-difluoro-benzoimidazol-1-ylmethyl]-phenyl}-propionic acid], for which the IC50 was determined as 66100 nM.

Turning to `O=C(O)c1ccc(COc2cc(Cl)ccc2-c2nc3cc(F)c(F)cc3n2Cc2cccc(Cl)c2)cc1` [Example 56, 4-{5-Chloro-2-[1-(3-chloro-benzyl)-5,6-difluoro-1H-benzoimidazol-2-yl]-phenoxymethyl}-benzoic acid], the IC50 was found to be 500 nM.

In turn, `Fc1cc2nc(-c3cccnc3OCc3ccccc3Cl)n(CC3CCCCC3)c2cc1F` [Example 3, 2-[2-(2-Chloro-benzyloxy)-pyridin-3-yl]-1-cyclohexylmethyl-5,6-difluoro-1H-benzoimidazole] showed an IC50 of 700 nM.

`Fc1cc2nc(-c3cccnc3OCC3CCCC3)n(CC3CCCCC3)c2cc1F` [Example 1, 1-Cyclohexylmethyl-2-(2-cyclopentylmethoxy-pyridin-3-yl)-5,6-difluoro-1H-benzoimidazole] returned an IC50 of 200 nM.

`O=C(Nc1ccc(-c2nnn[nH]2)cc1F)c1ccccc1-c1nc2cc(F)c(F)cc2n1CC1CCCCC1` [Example 86, 2-(1-Cyclohexylmethyl-5,6-difluoro-1H-benzoimidazol-2-yl)-N-[2-fluoro-4-(1H-tetrazol-5-yl)-phenyl]-benzamide]: the IC50 amounted to 3 nM.

For `O=C(O)COc1ccc(COc2ncccc2-c2nc3cc(F)c(F)cc3n2Cc2ccccc2)cc1` [Example 10, {4-[3-(1-Benzyl-5,6-difluoro-1H-benzoimidazol-2-yl)-pyridin-2-yloxymethyl]-phenoxy}-acetic acid], the IC50 turned out to be 12800 nM.

In the case of `Fc1cc2nc(-c3ccc(Cl)cc3OCc3ccc(-c4nnn[nH]4)cc3F)n(CC3CCCC3)c2cc1F` [Example 42, 2-{4-Chloro-2-[2-fluoro-4-(1H-tetrazol-5-yl)-benzyloxy]-phenyl}-1-cyclopentylmethyl-5,6-difluoro-1H-benzoimidazole], the IC50 was found to be 40 nM.

`Fc1cc2nc(-c3ccc(Cl)cc3OCC3CCOCC3)n(Cc3ccc(-c4nnn[nH]4)cc3F)c2cc1F` [Example 90, 2-[4-Chloro-2-(tetrahydro-pyran-4-ylmethoxy)-phenyl]-5,6-difluoro-1-[2-fluoro-4-(1H-tetrazol-5-yl)-benzyl]-1H-benzoimidazole] registered an IC50 of 1600 nM.

Turning to `Fc1cc2nc(-c3ccc(Cl)cc3OCc3ccc(-c4nnn[nH]4)s3)n(CC3CCCCC3)c2cc1F` [Example 37, 2-{4-Chloro-2-[5-(1H-tetrazol-5-yl)-thiophen-2-ylmethoxy]-phenyl}-1-cyclohexylmethyl-5,6-difluoro-1H-benzoimidazole], the IC50 was 200 nM.

`Fc1cc2nc(-c3ccc(Cl)cc3OCc3ccccc3Cl)n(Cc3ccccc3)c2cc1F` [Example 48, 1-Benzyl-2-[4-chloro-2-(2-chloro-benzyloxy)-phenyl]-5,6-difluoro-1H-benzoimidazole] had an IC50 of 400 nM.

`O=C(O)CCc1ccc(Cn2c(-c3ccc(Cl)cc3OCC3CC3)nc3cc(F)c(F)cc32)cc1` [Example 60, 3-{4-[2-(4-Chloro-2-cyclopropylmethoxy-phenyl)-5,6-difluoro-benzoimidazol-1-ylmethyl]-phenyl}-propionic acid] returned an IC50 of 1300 nM.

`COc1cc(Cl)ccc1-c1nc2cc(F)c(F)cc2n1Cc1ccc(-c2nnn[nH]2)cc1F` [Example 71, 2-(4-Chloro-2-methoxy-phenyl)-5,6-difluoro-1-[2-fluoro-4-(1H-tetrazol-5-yl)-benzyl]-1H-benzoimidazole] returned an IC50 of 1100 nM.

The molecule `O=C(O)COc1ccc(COc2ncccc2-c2nc3cc(F)c(F)cc3n2CC2CCCCC2)cc1` [Example 5, {4-[3-(1-Cyclohexylmethyl-5,6-difluoro-1H-benzoimidazol-2-yl)-pyridin-2-yloxymethyl]-phenoxy}-acetic acid] registered an IC50 of 12100 nM.

`CCCOc1cc(Cl)ccc1-c1nc2cc(F)c(F)cc2n1Cc1ccc(-c2nnn[nH]2)cc1F` [Example 91, 2-(4-Chloro-2-propoxy-phenyl)-5,6-difluoro-1-[2-fluoro-4-(1H-tetrazol-5-yl)-benzyl]-1H-benzoimidazole] gave an IC50 of 50 nM.

Regarding `O=C(O)CCCCCn1c(-c2ccc(Cl)cc2OCC2CCCC2)nc2cc(F)c(F)cc21` [Example 65, 6-[2-(4-Chloro-2-cyclopentylmethoxy-phenyl)-5,6-difluoro-benzoimidazol-1-yl]-hexanoic acid], the IC50 turned out to be 3700 nM.

`Fc1cc2nc(-c3ccc(Cl)cc3OCc3ccc(-c4nnn[nH]4)cc3F)n(CC3CCCCC3)c2cc1F` [Example 32, 2-{4-Chloro-2-[2-fluoro-4-(1H-tetrazol-5-yl)-benzyloxy]-phenyl}-1-cyclohexylmethyl-5,6-difluoro-1H-benzoimidazole] showed a 50% inhibitory concentration (IC50) of 10 nM.

For the molecule `Fc1cc2nc(-c3ccc(Cl)cc3OCc3ccc(-c4nnn[nH]4)cc3F)n(CC3CCCCO3)c2cc1F` (stereo not drawn) [Example 45, 2-{4-Chloro-2-[2-fluoro-4-(1H-tetrazol-5-yl)-benzyloxy]-phenyl}-5,6-difluoro-1-(tetrahydro-pyran-2-ylmethyl)-1H-benzoimidazole], the IC50 worked out at 100 nM.

`Fc1cc2nc(-c3ccc(Cl)cc3OCC3CCCCC3)n(Cc3ccc(-c4nnn[nH]4)cc3F)c2cc1F` [Example 87, 2-(4-Chloro-2-cyclohexylmethoxy-phenyl)-5,6-difluoro-1-[2-fluoro-4-(1H-tetrazol-5-yl)-benzyl]-1H-benzoimidazole] showed an IC50 of 20 nM.

The molecule `Fc1cc2nc(-c3ccc(Cl)cc3OCc3ccc(-c4nnn[nH]4)cc3F)n(CCC3CCCCC3)c2cc1F` [Example 43, 2-{4-Chloro-2-[2-fluoro-4-(1H-tetrazol-5-yl)-benzyloxy]-phenyl}-1-(2-cyclohexyl-ethyl)-5,6-difluoro-1H-benzoimidazole] yielded an IC50 of 90 nM.

For `Fc1cc2nc(-c3ccccc3COc3ccc(-c4nnn[nH]4)cc3F)n(CC3CCCCC3)c2cc1F` [Example 40, 1-Cyclohexylmethyl-5,6-difluoro-2-{2-[2-fluoro-4-(1H-tetrazol-5-yl)-phenoxymethyl]-phenyl}-1H-benzoimidazole], the IC50 amounted to 4 nM.

Turning to `FC1(F)CCC(Cn2c(-c3ccccc3CCc3ccc(-c4nnn[nH]4)cc3)nc3ccccc32)CC1` [Example 81, 1-(4,4-Difluoro-cyclohexylmethyl)-2-(2-{2-[4-(1H-tetrazol-5-yl)-phenyl]-ethyl}-phenyl)-1H-benzoimidazole], the IC50 amounted to 40 nM.

`O=C(O)CCc1ccc(Cn2c(-c3cccnc3OCC3CCCC3)nc3cc(F)c(F)cc32)cc1` [Example 18, 3-{4-[2-(2-Cyclopentylmethoxy-pyridin-3-yl)-5,6-difluoro-benzoimidazol-1-ylmethyl]-phenyl}-propionic acid]: the IC50 was 30400 nM.

In the case of `Fc1cc2nc(-c3ccccc3OCc3ccc(-c4nnn[nH]4)cc3F)n(CC3CCCCC3)c2cc1F` [Example 34, 1-Cyclohexylmethyl-5,6-difluoro-2-{2-[2-fluoro-4-(1H-tetrazol-5-yl)-benzyloxy]-phenyl}-1H-benzoimidazole], the IC50 was determined as 30 nM.

Values taken from patent US8309581B2, “Benzimidazole derivatives” (Hoffmann-La Roche Inc., priority 2009, dated 2012).
